Experimental data from ChEMBL document CHEMBL1126419 (Bioorg Med Chem Lett, 1992).

Target: cAMP-dependent protein kinase (PKA) (Homo sapiens, UniProt P22694+P17612+P22612)
Assay: Inhibition of protein kinase A
Format: protein assay

SMILES | IC50 [µM]
O=C1NC(O)c2c1c1c3ccccc3[nH]c1c1[nH]c3ccccc3c21 (centres undefined) | 34
O=C1NC(=O)c2c1c1c3cccc(Cl)c3[nH]c1c1[nH]c3c(Cl)cccc3c21 | > 100
O=C1NC(=O)c2c1c1c3ccccc3[nH]c1c1[nH]c3ccccc3c21 [STAUROSPORINE AGLYCON] | 60
O=C1NCc2c1c1c3ccccc3[nH]c1c1[nH]c3ccccc3c21 [STAUROSPORINONE] | 25.7
